The record followed here is ChEMBL document CHEMBL1201862, “PubChem BioAssay data set” (2004).

pIC50: −log10 of the molar value. The source made the active and inactive calls. Rule as the data show it, for most assays here: actives have a measured EC50 and inactives only a lower limit.

Test [1] concerns the target T1, CAAX prenyl protease 2 (Homo sapiens, UniProt Q9Y256).
T1 sequence (Q9Y256 whole entry): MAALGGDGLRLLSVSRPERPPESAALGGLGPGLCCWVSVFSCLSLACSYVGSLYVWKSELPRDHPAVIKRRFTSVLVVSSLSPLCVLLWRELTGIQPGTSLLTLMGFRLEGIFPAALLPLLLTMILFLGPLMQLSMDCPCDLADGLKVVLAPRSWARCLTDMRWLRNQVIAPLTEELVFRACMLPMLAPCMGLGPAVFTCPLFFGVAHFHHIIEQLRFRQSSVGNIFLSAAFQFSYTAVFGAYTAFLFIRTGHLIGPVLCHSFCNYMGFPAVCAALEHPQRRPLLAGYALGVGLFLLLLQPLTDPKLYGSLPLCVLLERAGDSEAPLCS
Put plainly: inhibition of Ras-converting CAAX protease Rce1 – biochemical, yeast membranes, quenched-peptide fluorescence, cherry-pick, dose response (AID 588849).

For test [2], the target named is CAAX prenyl protease 2 (Saccharomyces cerevisiae S288c, UniProt Q03530). The format is biochemical.
Sequence of CAAX prenyl protease 2 (Saccharomyces cerevisiae S288c, UniProt Q03530) (Q03530 whole entry, the tested form may be a part): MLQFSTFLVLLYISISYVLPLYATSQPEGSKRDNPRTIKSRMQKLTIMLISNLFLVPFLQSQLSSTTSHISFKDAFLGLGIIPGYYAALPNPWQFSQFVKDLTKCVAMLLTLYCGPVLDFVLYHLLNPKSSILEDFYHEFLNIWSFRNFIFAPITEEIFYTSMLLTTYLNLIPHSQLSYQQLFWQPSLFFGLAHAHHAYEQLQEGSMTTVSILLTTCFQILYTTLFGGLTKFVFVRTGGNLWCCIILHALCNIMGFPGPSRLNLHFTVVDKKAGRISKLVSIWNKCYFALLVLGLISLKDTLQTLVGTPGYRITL
Test [3] addresses Disintegrin and metalloproteinase domain-containing protein 17 (Homo sapiens, UniProt P78536). The test is described as follows: exosite inhibitors of ADAM17, dose response, biochemical (AID 743260).
A short description of test [4]: inhibition of ADAM10 peptide cleavage – biochemical, FRET peptide substrate, recombinant human ADAM10, selectivity assay for ADAM17 exosite inhibitor project, dose response (AID 743259).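 Also: ADAM10 enzyme cleaving a FRET peptide substrate.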
The nature of test [5]: viability of uninfected HEp-2 cells – cell-based, HTS, cytotoxicity control for RSV inhibitor project, dose response (AID 2410). The format is functional. The conditions noted are these: human respiratory syncytial virus.
For test [6], the target named is DNA dC->dU-editing enzyme APOBEC-3G (Homo sapiens, UniProt Q9HC16). Put plainly: Dose Response confirmation of small molecule APOBEC3G DNA Deaminase Inhibitors via a fluorescence-based single-stranded DNA deaminase assay. [Related pubchem assays (depositor defined):AID493012, AID493028]. In kind it is functional.
Sequence of DNA dC->dU-editing enzyme APOBEC-3G (Q9HC16 whole entry): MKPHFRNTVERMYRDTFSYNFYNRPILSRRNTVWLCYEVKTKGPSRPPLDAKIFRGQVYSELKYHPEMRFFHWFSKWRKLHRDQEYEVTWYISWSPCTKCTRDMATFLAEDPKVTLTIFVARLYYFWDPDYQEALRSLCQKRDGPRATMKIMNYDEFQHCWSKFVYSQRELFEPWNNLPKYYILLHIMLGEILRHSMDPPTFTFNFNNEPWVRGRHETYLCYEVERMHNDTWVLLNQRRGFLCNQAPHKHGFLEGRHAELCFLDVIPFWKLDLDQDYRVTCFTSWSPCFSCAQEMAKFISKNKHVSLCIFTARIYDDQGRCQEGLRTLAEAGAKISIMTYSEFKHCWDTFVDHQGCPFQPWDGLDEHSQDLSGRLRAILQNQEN
Test [7] addresses DNA dC->dU-editing enzyme APOBEC-3A (Homo sapiens, UniProt P31941). Put plainly: A3A deaminase inhibition for selectivity – biochemical, dose response (AID 504722). In kind it is functional.
For test [8], the system named is BJ. The test is described as follows: growth inhibition of engineered Ras-driven BJ cells – cell-based, alamar blue fluorescence, cherrypicked samples, dose response (AID 2631).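 Also: confirmatory dose-response assay in RAS-dependent BJ fibroblasts engineered with TERT, LT and ST, with cytotoxicity read by fluorescence.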 In kind it is functional. The following applies: Homo sapiens. (Resazurin is reduced to fluorescent resorufin, in cell work by metabolically active cells.)
Test [9] deals with BJ. The test is described as follows: BJ-TERT-LT-ST fibroblast viability loss – cell-based, RAS-independent, luminescence, dose response (AID 1935).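 Also: BJ fibroblasts immortalized with TERT plus LT and ST oncogenes.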 In kind it is functional. The conditions noted are these: Homo sapiens.
The nature of test [10]: alpha-synuclein stem-loop luciferase translation blockers – H4 neuroglioma cells, luminescence, confirmation (AID 1988). The format is functional, cell-based.
A short description of test [11]: DRD fibroblast viability loss – cell-based, non-viral oncogenic, luminescence, dose response (AID 1934). The format is functional. The following applies: Homo sapiens.
The test system of test [12] is Vero. The test is described as follows: cells. In kind it is functional. The following applies: Chlorocebus sabaeus.
For test [13], the system named is BJ. The test is described as follows: cells. The format is functional, cell-based. The conditions noted are these: Homo sapiens.
Test [14] in a line: cells. The format is functional, cell-based.
The nature of test [15]: luciferase reporter signal suppression in cells – H4 neuroglioma cells, luminescence, dose response (AID 1990). The format is functional, cell-based.
The test system of test [16] is BJ. Put plainly: BJ-TERT fibroblast viability loss – cell-based, RAS-independent, luminescence, dose response (AID 1933). The format is functional. The following applies: Homo sapiens.
In test [17] the test system is Vero. The test is described as follows: cells. The format is functional, cell-based. The following applies: Chlorocebus sabaeus.
Test [18] in a line: Luminescence Cell-Based Dose Response HTS to Identify Inhibitors of 5'UTR Stem-Loop Driven Prion Protein mRNA Translation in H4 Neuroglioblastoma Cells. [Related pubchem assays: 1827 (Project Summary), 1813 (Primary HTS)]. The format is functional.
Test [19] concerns Streptococcus. The test is described as follows: GAS UMAA2166 growth inhibition – luminescence, BacTiterGlo, counter-screen for streptokinase expression inhibitor project, dose response (AID 1915).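 Also: potency for reduction of bacterial viability or growth.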 In kind it is functional, organism-based.
For test [20], the target named is Beta-galactosidase (Escherichia coli, UniProt Q8VNN2). The format is functional.
Sequence of Beta-galactosidase (Q8VNN2 whole entry): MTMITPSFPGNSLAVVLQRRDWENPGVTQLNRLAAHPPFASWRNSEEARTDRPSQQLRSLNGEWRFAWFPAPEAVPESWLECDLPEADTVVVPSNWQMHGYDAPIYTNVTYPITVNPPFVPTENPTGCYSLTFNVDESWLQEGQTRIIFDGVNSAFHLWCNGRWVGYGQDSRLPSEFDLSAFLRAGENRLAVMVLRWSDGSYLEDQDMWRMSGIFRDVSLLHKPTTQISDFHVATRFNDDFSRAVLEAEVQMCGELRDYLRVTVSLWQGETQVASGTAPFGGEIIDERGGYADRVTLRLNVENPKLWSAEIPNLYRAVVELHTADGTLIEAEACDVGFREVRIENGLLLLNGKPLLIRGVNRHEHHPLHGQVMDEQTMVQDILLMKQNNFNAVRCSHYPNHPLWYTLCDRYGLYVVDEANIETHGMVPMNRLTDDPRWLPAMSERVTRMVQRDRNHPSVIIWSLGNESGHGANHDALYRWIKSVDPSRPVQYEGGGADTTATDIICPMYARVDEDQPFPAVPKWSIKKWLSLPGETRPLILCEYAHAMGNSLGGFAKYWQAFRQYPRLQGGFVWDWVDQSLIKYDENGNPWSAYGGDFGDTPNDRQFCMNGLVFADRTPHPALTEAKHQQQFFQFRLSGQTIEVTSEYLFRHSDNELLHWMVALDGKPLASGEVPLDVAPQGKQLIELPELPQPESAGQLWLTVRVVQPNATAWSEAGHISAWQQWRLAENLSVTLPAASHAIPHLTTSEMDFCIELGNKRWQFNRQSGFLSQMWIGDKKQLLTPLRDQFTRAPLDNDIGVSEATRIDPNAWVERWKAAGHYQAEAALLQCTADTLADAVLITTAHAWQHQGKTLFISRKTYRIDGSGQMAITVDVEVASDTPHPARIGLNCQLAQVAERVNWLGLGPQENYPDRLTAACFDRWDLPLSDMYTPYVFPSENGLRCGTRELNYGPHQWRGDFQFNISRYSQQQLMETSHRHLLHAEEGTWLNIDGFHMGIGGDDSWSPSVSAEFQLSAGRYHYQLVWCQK
The test system of test [21] is Streptococcus sp. 'group A'. Put plainly: Streptococcus pyogenes SK(-)GAS viability under kanamycin – luminescence, BacTiterGlo, confirmation, counter-screen for streptokinase expression inhibitor project, dose response (AID 1900). The format is functional, organism-based.
Test [22] addresses T2, Kappa-type opioid receptor (Homo sapiens, UniProt P41145). The format is functional.
Test [23] concerns the target T2, Kappa-type opioid receptor. The format is functional. The source holds these as a separate data set.
Test [24] deals with INS1. The test is described as follows: INS-1E survival protection against cytokine death – cell-based, luminescence, retest, dose response (AID 449756).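 Also: cell death triggered by IL-1 beta plus TNF-alpha plus IFN-gamma mixture; protective hits raise ATP signal compared with cytokine alone wells.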 In kind it is functional. The conditions noted are these: Rattus norvegicus.
The nature of test [25]: cells. In kind it is functional, cell-based. This is another data set of the same source.
The target of test [26] is T3, Corticotropin-releasing factor receptor 2/Corticotropin-releasing factor-binding protein (Homo sapiens, UniProt P24387+Q13324).
T3 sequence (Q13324 whole entry): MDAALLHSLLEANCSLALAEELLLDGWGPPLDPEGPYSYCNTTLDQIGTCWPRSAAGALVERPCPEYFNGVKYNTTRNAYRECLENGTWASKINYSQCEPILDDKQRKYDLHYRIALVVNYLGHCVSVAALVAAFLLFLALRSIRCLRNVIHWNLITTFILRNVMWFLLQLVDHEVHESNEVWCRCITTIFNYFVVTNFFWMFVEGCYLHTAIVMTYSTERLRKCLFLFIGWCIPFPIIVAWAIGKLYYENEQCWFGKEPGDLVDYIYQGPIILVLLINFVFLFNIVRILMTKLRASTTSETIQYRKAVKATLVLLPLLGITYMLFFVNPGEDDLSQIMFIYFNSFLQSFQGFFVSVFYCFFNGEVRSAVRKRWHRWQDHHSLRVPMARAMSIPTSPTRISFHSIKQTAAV
T3 sequence (P24387 whole entry): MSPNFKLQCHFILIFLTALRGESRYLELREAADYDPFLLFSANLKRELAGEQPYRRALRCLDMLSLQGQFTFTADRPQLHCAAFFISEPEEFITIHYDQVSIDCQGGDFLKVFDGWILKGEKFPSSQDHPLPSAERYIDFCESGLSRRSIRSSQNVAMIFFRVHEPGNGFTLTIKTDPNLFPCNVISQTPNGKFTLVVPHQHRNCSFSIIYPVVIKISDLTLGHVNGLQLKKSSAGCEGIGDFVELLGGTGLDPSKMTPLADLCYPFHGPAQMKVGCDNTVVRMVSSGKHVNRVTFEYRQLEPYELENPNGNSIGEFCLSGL
The test is described as follows: activators of CRF receptor 2 with binding protein – uHTS hits, confirmation (AID 602473). The following applies: read-out: EC50_Mean. The format is functional.

Test [27] deals with G-protein coupled receptor 55 (Homo sapiens, UniProt Q9Y2T6). Put plainly: selective activators of receptor GPR55 – imaging, U2OS cells, beta-arrestin-GFP redistribution, primary screen (AID 1961). In kind it is functional.
Sequence of G-protein coupled receptor 55 (Q9Y2T6 whole entry): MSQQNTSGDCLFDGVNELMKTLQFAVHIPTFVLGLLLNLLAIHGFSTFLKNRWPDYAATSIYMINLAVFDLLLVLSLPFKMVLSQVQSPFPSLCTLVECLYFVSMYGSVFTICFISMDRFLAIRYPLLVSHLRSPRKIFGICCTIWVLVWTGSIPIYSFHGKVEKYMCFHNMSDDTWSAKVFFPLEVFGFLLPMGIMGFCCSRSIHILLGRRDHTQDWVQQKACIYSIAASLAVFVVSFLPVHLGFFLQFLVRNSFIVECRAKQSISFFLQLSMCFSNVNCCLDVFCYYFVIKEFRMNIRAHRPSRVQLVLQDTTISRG
Test [28] deals with Heat shock protein HSP 90-alpha (Homo sapiens, UniProt P07900). In kind it is functional, organism-based.
Test [29] in a line: HPDE-C7 pancreatic duct cell viability loss – fluorescence, HTS (AID 430). In kind it is functional, cell-based. The conditions noted are these: Homo sapiens.
Test [30] can be described thus: viability loss of HPDE-C7K cells – cell-based, fluorescence, HTS, primary screen (AID 431). The conditions noted are these: Homo sapiens. In kind it is functional.
Test [31] has as its target T3, Corticotropin-releasing factor receptor 2/Corticotropin-releasing factor-binding protein. The test is described as follows: Dose Response confirmation of uHTS hits for small molecule antagonists of the CRF-binding protein and CRF-R2 receptor complex. The format is functional. The conditions noted are these: read-out: IC50_Mean.
In test [32] the target is T4, Streptokinase A (Streptococcus pyogenes serotype M1, UniProt P10520).
T4 sequence (P10520 whole entry): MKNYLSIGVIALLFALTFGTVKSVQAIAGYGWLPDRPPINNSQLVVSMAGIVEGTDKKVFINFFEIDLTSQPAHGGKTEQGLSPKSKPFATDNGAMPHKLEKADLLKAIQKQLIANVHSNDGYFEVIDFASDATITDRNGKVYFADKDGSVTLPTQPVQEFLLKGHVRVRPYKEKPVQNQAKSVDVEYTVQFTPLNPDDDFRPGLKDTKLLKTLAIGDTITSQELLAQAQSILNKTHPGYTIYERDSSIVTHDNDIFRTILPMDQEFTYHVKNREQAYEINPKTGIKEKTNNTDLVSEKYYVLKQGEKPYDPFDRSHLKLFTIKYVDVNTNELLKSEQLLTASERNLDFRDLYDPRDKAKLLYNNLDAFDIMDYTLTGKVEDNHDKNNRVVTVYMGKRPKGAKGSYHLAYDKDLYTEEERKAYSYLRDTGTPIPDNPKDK
Put plainly: viability-normalized secreted streptokinase activity reduction – plasminogen activation absorbance, OD405, dose response (AID 1914).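 Also: secreted streptokinase activity via plasminogen activation per viability signal from cell pellet.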 In kind it is functional, Streptococcus pyogenes M1 GAS.

Test [33] has as its target T5, Calpain-2 catalytic subunit (Sus scrofa, UniProt P43367).
T5 sequence (P43367 whole entry): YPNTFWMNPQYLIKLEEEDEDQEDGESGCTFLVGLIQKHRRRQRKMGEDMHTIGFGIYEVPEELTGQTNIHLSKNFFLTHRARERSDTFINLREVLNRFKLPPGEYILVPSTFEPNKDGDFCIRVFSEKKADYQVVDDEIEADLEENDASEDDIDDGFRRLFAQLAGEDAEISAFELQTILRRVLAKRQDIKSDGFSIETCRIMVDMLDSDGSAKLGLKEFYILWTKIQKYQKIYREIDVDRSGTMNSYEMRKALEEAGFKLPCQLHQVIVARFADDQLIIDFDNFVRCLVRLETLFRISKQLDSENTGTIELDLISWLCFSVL
Put plainly: m-calpain protease blockers, concentration series – biochemical, fluorogenic peptide substrate, dose response (AID 1420). The format is functional.

T2 sequence (P41145 whole entry): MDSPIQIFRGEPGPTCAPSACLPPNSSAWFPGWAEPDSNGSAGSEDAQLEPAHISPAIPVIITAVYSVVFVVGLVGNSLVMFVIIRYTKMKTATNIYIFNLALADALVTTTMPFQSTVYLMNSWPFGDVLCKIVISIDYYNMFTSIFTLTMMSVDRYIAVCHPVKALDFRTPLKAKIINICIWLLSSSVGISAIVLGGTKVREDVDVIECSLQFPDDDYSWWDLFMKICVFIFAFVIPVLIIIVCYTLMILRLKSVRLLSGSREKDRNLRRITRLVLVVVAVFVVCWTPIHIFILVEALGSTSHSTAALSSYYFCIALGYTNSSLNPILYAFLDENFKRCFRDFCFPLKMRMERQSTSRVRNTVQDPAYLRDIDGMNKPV
Sequence of Disintegrin and metalloproteinase domain-containing protein 17 (P78536 whole entry, the tested form may be a part): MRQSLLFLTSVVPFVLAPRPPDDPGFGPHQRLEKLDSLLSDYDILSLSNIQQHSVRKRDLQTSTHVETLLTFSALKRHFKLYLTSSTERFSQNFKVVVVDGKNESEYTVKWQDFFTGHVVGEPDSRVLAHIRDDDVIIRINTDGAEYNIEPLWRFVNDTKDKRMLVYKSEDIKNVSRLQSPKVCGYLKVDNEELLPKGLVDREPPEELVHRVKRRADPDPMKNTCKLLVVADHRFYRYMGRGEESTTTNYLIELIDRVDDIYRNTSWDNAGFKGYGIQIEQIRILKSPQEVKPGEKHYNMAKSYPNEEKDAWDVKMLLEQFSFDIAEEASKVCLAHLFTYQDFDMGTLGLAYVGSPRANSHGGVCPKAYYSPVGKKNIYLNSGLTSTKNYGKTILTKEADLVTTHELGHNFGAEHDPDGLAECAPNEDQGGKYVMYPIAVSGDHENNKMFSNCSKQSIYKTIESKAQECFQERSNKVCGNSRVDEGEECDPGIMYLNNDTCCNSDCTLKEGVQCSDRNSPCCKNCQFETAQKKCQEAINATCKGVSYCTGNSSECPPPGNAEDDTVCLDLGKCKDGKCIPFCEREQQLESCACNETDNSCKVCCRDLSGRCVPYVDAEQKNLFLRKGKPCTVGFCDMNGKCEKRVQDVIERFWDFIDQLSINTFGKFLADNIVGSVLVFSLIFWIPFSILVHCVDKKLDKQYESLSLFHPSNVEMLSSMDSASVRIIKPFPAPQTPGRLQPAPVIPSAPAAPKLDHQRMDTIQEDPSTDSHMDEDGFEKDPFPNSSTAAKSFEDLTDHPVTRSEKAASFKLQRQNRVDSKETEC
Sequence of DNA dC->dU-editing enzyme APOBEC-3A (P31941 whole entry): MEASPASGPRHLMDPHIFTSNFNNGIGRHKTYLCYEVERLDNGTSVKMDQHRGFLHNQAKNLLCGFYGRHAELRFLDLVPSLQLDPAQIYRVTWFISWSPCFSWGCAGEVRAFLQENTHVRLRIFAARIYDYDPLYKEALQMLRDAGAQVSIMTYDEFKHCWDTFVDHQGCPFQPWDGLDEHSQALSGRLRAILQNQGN

Usually AC50 stands for the midpoint of the concentration-response curve, whichever way the signal moves. What is called CC50 is the concentration that lowers cell viability or growth by half. As for `CCO[C@H]1OC(C(=O)Nc2ccccc2)=C[C@@H](c2csc3ccccc23)[C@@H]1CCCO`, the results for the AC50 in [1] and in [2] were 0.183 µM (active) and 17.5 µM (active), respectively. In addition, the IC50 in test [3] was > 69.5 µM (inactive); in test [4], 11.2 µM (inactive). Moreover, the cytotoxic concentration (CC50) in test [5] is 18.7 µM (active).

Turning to `CCOc1ccc(N)c(SSc2cc(OCC)ccc2N)c1`, the IC50 was 17.1 µM (active) in test [6] and > 100 µM (inactive) in test [7].

Broadly, the pIC50 is −log10 of the IC50, conventionally taken in molar units. Consider `Cc1ccccc1N=Nc1ccc(O)c2ncccc12`, for which the EC50 in [8] was 0.677 µM (active); in [9], 6.64 µM (inconclusive); in [10], 2.03 µM (active); in test [11], 12.7 µM (active); in test [13], 15.1 µM (inconclusive); in test [14], 46.8 µM (active). The EC50 in [15] was 5.81 µM (active); in test [16], 10.4 µM (inconclusive); in [18], 2.89 µM (active); in test [19], 0.437 µM (active); in test [20], 30.1 µM (active); in test [21], < 0.06 µM (active). Moreover, in test [25], the EC50 was 7.93 µM (active). For the same molecule, in [12], the CC50 was 5.63 µM (active). Also, the IC50 in test [17] is > 25 µM (active); in [22] it was 4.11 µM (active). The molecule further gave a pIC50 in test [23] of less than 4.49. Besides, the AC50 in test [24] was 1.65 µM (active).

With `CCCOC(=O)c1ccc(Oc2c[nH]nc2-c2ccc(OCC)cc2O)cc1`, the EC50 was > 53 µM (inactive) in test [26]; > 32 µM (inactive) in test [27]; 6.6 µM (active) in [29]; 6.96 µM (active) in test [30]; 33.8 µM (active) in test [19]; 8.69 µM (active) in test [21]. The EC50 in test [32] is listed as > 150 µM (not active). Besides, the AC50 in test [28] is 7.92 µM (active). Further, the IC50 is > 69.5 µM (inactive) in test [3], > 47.1 µM (inactive) in test [31] and 19.6 µM (not active) in [33].
